Data as given in patent US7829063B2, “Development of molecular imaging probes for carbonic anhydrase-IX using click chemistry” (Siemens Medical Solutions USA, Inc., priority 2007, dated 2010).
Like-named read-outs stand apart in the source and are kept apart here.

Biological target: T1, CA-IX (Homo sapiens, UniProt Q16790)
T1 construct: His tag (C); purchased R&D Systems Inc. 2188-CA; host or cells: mouse myeloma cell line NS0
Assay: CA-IX combinatorial library screening, competitive fluorescence-based assay with dansylamide (DNSA)
Type: binding
Settings: sample concentrations 100 nM and 1000 nM, DNSA 200 μM, screening at 1 μM; for inhibition at 1 µM: 1 h
In short: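 Recombinant His-tagged CA-IX (NS0-expressed) in phosphate buffer pH 7.4 with test compound at 100 nM or 1000 nM; competitive displacement started with 200 μM dansylamide (stock concentration). After 1 h at 25 °C, fluorescence read at 460 nm (excitation 290 nm).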

[1] = Table 1, Libraries 1-3, read-out: In Vitro Binding Assay (Library Screening)
[2] = Table 2, Libraries 4-7, read-out: In Vitro Binding Assay (Library (Screening))

`CC(C)[C@@H](C(=O)O)n1cc(CNC(=O)c2ccc(S(N)(=O)=O)cc2)nn1` [DHK60] gave an inhibition at 1 µM [1] of under 40%.

For `NS(=O)(=O)c1ccc(C(=O)NCc2cn(CC(=O)N3CCN(c4cc(Cl)cc(Cl)c4)CC3)nn2)cc1` [DHK94], the inhibition at 1 µM [1] was under 40%.

For `CC(C)C(C(=O)Nc1ccc(-c2ccccc2)cc1)n1cc(COc2ccc3nc(S(N)(=O)=O)sc3c2)nn1` (stereo not drawn) [DHK134], the inhibition at 1 µM [1] was under 40%.

With `C=CC1C[N@@]2CCC1CC2[C@@H](c1ccnc2ccc(OC)cc12)n1cc(-c2ccc(S(N)(=O)=O)cc2)nn1` (stereo partly drawn) [DHK72] the inhibition at 1 µM [1] was under 40%.

`CC(C)[C@@H](C(=O)N[C@@H]1c2ccccc2C[C@@H]1O)n1cc(COc2ccc3nc(S(N)(=O)=O)sc3c2)nn1` [DHK-2-43] gave an inhibition at 1 µM [2] of under 40%.

In the case of `CC(C)[C@@H](C(=O)NCc1ccc(C(F)(F)F)cc1)n1cc(COc2ccc3nc(S(N)(=O)=O)sc3c2)nn1` [DHK-2-24], the “In Vitro Binding Assay (Library Screening)” value (shortened to “In Vitro Binding Assay”) (Table 2, Libraries 4-7) is reported as “√ √”.

Work on `Cc1ccnc(NC(=O)[C@H](Cc2ccccc2)n2cc(COc3ccc4nc(S(N)(=O)=O)sc4c3)nn2)c1` [DHK115] yielded an inhibition at 1 µM [1] of under 40%.

For `CCOC(=O)C1CCN(C(=O)[C@H](C(C)C)n2cc(COc3ccc4nc(S(N)(=O)=O)sc4c3)nn2)CC1` [DHK-2-41], the “In Vitro Binding Assay” value (Table 2, Libraries 4-7) was “√”.

Work on `CN(Cc1ccccc1)C(=O)[C@H](Cc1ccccc1)n1cc(COc2ccc3nc(S(N)(=O)=O)sc3c2)nn1` [DHK-2-53] yielded an inhibition at 1 µM [2] of under 40%.

In the case of `CC1CCCN(C(=O)C(C(C)C)n2cc(-c3ccc(S(N)(=O)=O)cc3)nn2)C1` (stereo not drawn) [DHK15], the inhibition at 1 µM [1] is reported as under 40%.

Molecule `CC(C)[C@@H](C(=O)NCC1CC1)n1cc(-c2ccc(S(N)(=O)=O)cc2)nn1` [DHK180] has an inhibition at 1 µM [2] of under 40%.

`C=CC1C[N@@]2CCC1CC2[C@@H](c1ccnc2ccc(OC)cc12)n1cc(CNC(=O)c2ccc(S(N)(=O)=O)cc2)nn1` (stereo partly drawn) [DHK87] showed an inhibition at 1 µM [1] of under 40%.

`CC(C)[C@@H](C(=O)NCc1nc2ccccc2n1C)n1cc(-c2ccc(S(N)(=O)=O)cc2)nn1` [DHK189] was tested, and the inhibition at 1 µM [2] was under 40%.

`NS(=O)(=O)c1ccc(-c2cn(CCC(=O)Nc3ccccc3)nn2)cc1` [DHK102] showed an inhibition at 1 µM [1] of under 40%.

For `NS(=O)(=O)c1ccc(-c2cn([C@@H](Cc3ccccc3)C(=O)N3CCC(CCO)CC3)nn2)cc1` [DHK-2-18], the inhibition at 1 µM [2] was under 40%.

With `Cc1ccnc(NC(=O)[C@H](Cc2ccccc2)n2cc(CNC(=O)c3ccc(S(N)(=O)=O)cc3)nn2)c1` [DHK36] the inhibition at 1 µM [1] was under 40%.

`CCCOC(=O)c1ccc(NC(=O)Cn2cc(-c3ccc(S(N)(=O)=O)cc3)nn2)cc1` [DHK3] showed an inhibition at 1 µM [1] of under 40%.

Work on `CC(C)[C@@H](C(=O)O)n1cc(-c2ccc(S(N)(=O)=O)cc2)nn1` [DHK66] yielded an inhibition at 1 µM [1] of under 40%.

`CC(C)[C@@H](C(=O)NCc1ccccc1)n1cc(COc2ccc3nc(S(N)(=O)=O)sc3c2)nn1` [DHK126] showed an inhibition at 1 µM [1] of under 40%.

In the case of `CCOC(=O)C1CCN(C(=O)[C@H](Cc2ccccc2)n2cc(-c3ccc(S(N)(=O)=O)cc3)nn2)CC1` [DHK-2-17], the inhibition at 1 µM [2] is reported as under 40%.

For `NS(=O)(=O)c1ccc(-c2cn(C3CCN(S(=O)(=O)/C=C/c4ccccc4)CC3)nn2)cc1` [DHK109], the inhibition at 1 µM [1] was under 40%.

Work on `NS(=O)(=O)c1ccc(C(=O)NCc2cn(C3C(O)C(O)OC3C(O)CO)nn2)cc1` (stereo not drawn) [DHK112] yielded an inhibition at 1 µM [1] of under 40%.

Work on `CC(C)[C@@H](C(=O)NC1CCCCC1)n1cc(COc2ccc3nc(S(N)(=O)=O)sc3c2)nn1` [DHK-2-36] yielded an inhibition at 1 µM [2] of under 40%.

Work on `CC(C)[C@@H](C(=O)Nc1ccc(-c2ccccc2)cc1)n1cc(CNC(=O)c2ccc(S(N)(=O)=O)cc2)nn1` [DHK61] yielded an inhibition at 1 µM [1] of under 40%.

In the case of `NS(=O)(=O)c1nc2ccc(OCc3cn(C(c4ccccc4)[C@@H](OC/C=C/c4ccccc4)c4ccccc4)nn3)cc2s1` (stereo partly drawn) [DHK138], the inhibition at 1 µM [1] is reported as under 40%.

`CC(C)[C@@H](C(=O)N1CCC(N2CCCC2)CC1)n1cc(COc2ccc3nc(S(N)(=O)=O)sc3c2)nn1` [DHK-2-45] gave an inhibition at 1 µM [2] of under 40%.

With `CC(C)C[C@@H](C(=O)NCc1ccccc1)n1cc(COc2ccc3nc(S(N)(=O)=O)sc3c2)nn1` [DIIK118] the inhibition at 1 µM [1] was under 40%.

`CCCOC(=O)c1ccc(NC(=O)Cn2cc(COc3ccc4nc(S(N)(=O)=O)sc4c3)nn2)cc1` [DHK130] showed an inhibition at 1 µM [1] of under 40%.

`CCCCCC[C@@H](O)[C@@H](O)c1ccc(Cn2cc(COc3ccc4nc(S(N)(=O)=O)sc4c3)nn2)cc1` [DHK135] showed an inhibition at 1 µM [1] of under 40%.

Work on `CC(C)[C@@H](C(=O)N1CCN(c2ncccn2)CC1)n1cc(-c2ccc(S(N)(=O)=O)cc2)nn1` [DHK190] yielded an inhibition at 1 µM [2] of under 40%.

Work on `CC(C)[C@@H](C(=O)NCc1ccc(-c2ccccn2)s1)n1cc(COc2ccc3nc(S(N)(=O)=O)sc3c2)nn1` [DHK-2-29] yielded an inhibition at 1 µM [2] of under 40%.

With `CC(C)C(C(=O)NCc1cc(F)ccc1F)n1cc(CNC(=O)c2ccc(S(N)(=O)=O)cc2)nn1` (stereo not drawn) [DHK40] the inhibition at 1 µM [1] was under 40%.

In the case of `Cc1onc(-c2ccccc2)c1CNC(=O)[C@H](Cc1ccccc1)n1cc(COc2ccc3nc(S(N)(=O)=O)sc3c2)nn1` [DHK-2-66], the “In Vitro Binding Assay” value (Table 2, Libraries 4-7) is reported as “√ √”.

For `COC(=O)[C@H](C)NC(=O)[C@H](Cc1ccccc1)n1cc(-c2ccc(S(N)(=O)=O)cc2)nn1` [DHK-2-10], the inhibition at 1 µM [2] was under 40%.

Work on `NCCCn1cc(CNC(=O)c2ccc(S(N)(=O)=O)cc2)nn1` [DHK95] yielded an inhibition at 1 µM [1] of under 40%.

Molecule `CC1CCCN(C(=O)C(C(C)C)n2cc(CNC(=O)c3ccc(S(N)(=O)=O)cc3)nn2)C1` (stereo not drawn) [DHK44] has an inhibition at 1 µM [1] of under 40%.

With `NS(=O)(=O)c1ccc(C(=O)NCc2cn(-c3cccc(C(=O)NN4CCOCC4)c3)nn2)cc1` [DHK39] the inhibition at 1 µM [1] was under 40%.

`NS(=O)(=O)c1nc2ccc(OCc3cn(-c4ccnc5cc(Cl)ccc45)nn3)cc2s1` [DHK136] was tested, and the inhibition at 1 µM [1] was under 40%.

For `CC(CN(C)C)Cn1cc(-c2ccc(S(N)(=O)=O)cc2)nn1` (stereo not drawn) [DHK14], the inhibition at 1 µM [1] was under 40%.

`NS(=O)(=O)c1ccc(-c2cn([C@@H](Cc3ccccc3)C(=O)N3CCC(N4CCCC4)CC3)nn2)cc1` [DHK-2-21] gave an inhibition at 1 µM [2] of under 40%.

For `NS(=O)(=O)c1ccc(-c2cn(CCCCCCO)nn2)cc1` [DHK73], the inhibition at 1 µM [1] was under 40%.

In the case of `NS(=O)(=O)c1ccc(C(=O)NCc2cn(Cn3nnc4ccccc43)nn2)cc1` [DHK55], the inhibition at 1 µM [1] is reported as under 40%.

With `NS(=O)(=O)c1nc2ccc(OCc3cn(CC(=O)N4CCN(c5cc(Cl)cc(Cl)c5)CC4)nn3)cc2s1` [DHK141] the inhibition at 1 µM [1] was under 40%.

With `CC(C)[C@@H](C(=O)NCc1ccccc1)n1cc(CNC(=O)c2ccc(S(N)(=O)=O)cc2)nn1` [DHK52] the inhibition at 1 µM [1] was under 40%.

Work on `NS(=O)(=O)c1nc2ccc(OCc3cn(-c4cccc(C(=O)NN5CCOCC5)c4)nn3)cc2s1` [DHK116] yielded an inhibition at 1 µM [1] of under 40%.

`NS(=O)(=O)c1ccc(-c2cn([C@@H](Cc3ccccc3)C(=O)NCC3CC3)nn2)cc1` [DHK-2-13] was tested, and the inhibition at 1 µM [2] was under 40%.

Molecule `CCCCCC[C@H](O)[C@@H](O)c1ccc(Cn2cc(-c3ccc(S(N)(=O)=O)cc3)nn2)cc1` [DHK70] has an inhibition at 1 µM [1] of under 40%.

`NS(=O)(=O)c1nc2ccc(OCc3cn(CCN4CCOCC4)nn3)cc2s1` [DHK114] was tested, and the inhibition at 1 µM [1] was under 40%.

`Cc1ccc(CNC(=O)C(C(C)C)n2cc(CNC(=O)c3ccc(S(N)(=O)=O)cc3)nn2)cc1F` (stereo not drawn) [DHK49] was tested, and the inhibition at 1 µM [1] was under 40%.

Molecule `Cc1ccc(C)c(CNC(=O)[C@H](Cc2ccccc2)n2cc(COc3ccc4nc(S(N)(=O)=O)sc4c3)nn2)c1` [DHK120] has an inhibition at 1 µM [1] of under 40%.

Molecule `COC(=O)[C@H](CSCc1ccccc1)NC(=O)Cn1cc(-c2ccc(S(N)(=O)=O)cc2)nn1` [DHK4] has an inhibition at 1 µM [1] of under 40%.

With `CC(C)C(C(=O)NCCc1ccsc1)n1cc(-c2ccc(S(N)(=O)=O)cc2)nn1` (stereo not drawn) [DHK76] the inhibition at 1 µM [1] was under 40%.

`NS(=O)(=O)c1nc2ccc(OCc3cn([C@@H](Cc4ccccc4)C(=O)NC4CCCCC4)nn3)cc2s1` [DHK-2-63] gave an inhibition at 1 µM [2] of under 40%.

`CC(C)[C@@H](C(=O)N1CCC[C@@H]1CO)n1cc(COc2ccc3nc(S(N)(=O)=O)sc3c2)nn1` [DHK-2-30] showed an inhibition at 1 µM [2] of under 40%.

Molecule `COC(=O)C(Cc1ccc(C(=O)O)cc1)n1cc(-c2ccc(S(N)(=O)=O)cc2)nn1` (stereo not drawn) [DHK67] has an inhibition at 1 µM [1] of under 40%.

With `NS(=O)(=O)c1nc2ccc(OCc3cn(C4CCN(C(=O)/C=C/c5ccccc5)CC4)nn3)cc2s1` [DHK144] the inhibition at 1 µM [1] was under 40%.

`NS(=O)(=O)c1nc2ccc(OCc3cn([C@@H](Cc4ccccc4)C(=O)NCc4ccc(F)cc4)nn3)cc2s1` [DHK-2-52] showed an inhibition at 1 µM [2] of under 40%.

Molecule `Cc1cc(NC(=O)Cn2cc(-c3ccc(S(N)(=O)=O)cc3)nn2)n(C)n1` [DHK26] has an inhibition at 1 µM [1] of under 40%.

`NS(=O)(=O)c1ccc(-c2cn(Cc3nc4ccccc4[nH]3)nn2)cc1` [DHK27] was tested, and the inhibition at 1 µM [1] was under 40%.

For `NS(=O)(=O)c1ccc(-c2cn(CC(=O)Nc3nccs3)nn2)cc1` [DHK101], the inhibition at 1 µM [1] was under 40%.

For `COC(=O)C(C)NC(=O)[C@H](C(C)C)n1cc(COc2ccc3nc(S(N)(=O)=O)sc3c2)nn1` (stereo partly drawn) [DHK-2-34], the inhibition at 1 µM [2] was under 40%.

For `NS(=O)(=O)c1nc2ccc(OCc3cn(CCCCCCO)nn3)cc2s1` [DHK137], the inhibition at 1 µM [1] was under 40%.

`CN(C)Cc1ccc(CSCCNC(=O)[C@H](Cc2ccccc2)n2cc(-c3ccc(S(N)(=O)=O)cc3)nn2)o1` [DHK-2-3] gave an inhibition at 1 µM [2] of under 40%.

Work on `CC(C)[C@@H](C(=O)NCc1cc(F)ccc1F)n1cc(-c2ccc(S(N)(=O)=O)cc2)nn1` [DHK11] yielded an inhibition at 1 µM [1] of under 40%.

With `NS(=O)(=O)c1nc2ccc(OCc3cn([C@@H](Cc4ccccc4)C(=O)N4CCN(c5ncccn5)CC4)nn3)cc2s1` [DHK-2-55] the inhibition at 1 µM [2] was under 40%.

`NS(=O)(=O)c1ccc(-c2cn([C@@H](Cc3ccccc3)C(=O)N3CCN(c4ncccn4)CC3)nn2)cc1` [DHK-2-4] showed an inhibition at 1 µM [2] of under 40%.
